Measured values reported in US8674095B2, “Compounds for treating neuropsychiatric conditions” (Afraxis Holdings, Inc., priority 2008, dated 2014).

Biological target: PAK2 (Homo sapiens, UniProt Q13177)
Test: Z'Lyte fluorescence-based (FRET) kinase assay, PAK2
Assay type: biochemical
Conditions: 75 μM ATP (Km apparent), 1 hr room temperature, 1% DMSO
Method: (§1) A fluorescence-based assay format is used to determine IC50 values of test compounds in vitro. Purified PAK kinase is incubated with ATP, and a test compound at various concentrations and a substrate peptide containing two fluorophores. In a second step, the reaction mix is incubated with a site-specific protease that cleaves non-phosphorylated but not phosphorylated substrate peptide, disrupting the FRET signal generated by the two fluorophores in the cleaved peptide (Z′Lyte™ Kinase assay platform; Life Technologies).
(§2) Reagents: 50 mM HEPES, pH 7.5; 0.01% BRIJ-35; 10 mM MgCl2; 1 mM EGTA, 2 uM substrate peptide Ser/Thr20 (proprietary Life Technologies Sequence), PAK enzyme [2.42-30.8 ng for PAK1, 0.29-6 ng for PAK2, 1.5-20 ng for PAK3 and 0.1-0.86 ng for PAK4; actual enzyme amounts depend on lot activity of the enzyme preparation]
(§3) Test compounds are dissolved in DMSO at various concentrations; the final DMSO concentration in the assay reaction is 1%.
(§4) ATP concentration at Km apparent is used in the assay [50 μM ATP for PAK1 assay, 75 μM ATP for PAK2 assay, 100 μM ATP for PAK3 assay, 5 μM ATP for PAK-4 assay] in a total assay volume of […] Assay reactions are incubated at room temperature for 1 hr. Following the kinase reaction, 5 μl of 1:256 dilution of development solution A (Life Technologies) is added and the reaction mix is incubated for an additional 1 hr at room temperature.
(§5) Plates are analyzed in a standard fluorescence plate reader (Tecan or equivalent) using an excitation wavelength of 400 nm and emission wavelengths of 445 nm and 520 nm. Inhibition of kinase reaction is determined by emission ratio=emission@445 nm/emission@520 nm

Sequence of PAK2 (Q13177 whole entry): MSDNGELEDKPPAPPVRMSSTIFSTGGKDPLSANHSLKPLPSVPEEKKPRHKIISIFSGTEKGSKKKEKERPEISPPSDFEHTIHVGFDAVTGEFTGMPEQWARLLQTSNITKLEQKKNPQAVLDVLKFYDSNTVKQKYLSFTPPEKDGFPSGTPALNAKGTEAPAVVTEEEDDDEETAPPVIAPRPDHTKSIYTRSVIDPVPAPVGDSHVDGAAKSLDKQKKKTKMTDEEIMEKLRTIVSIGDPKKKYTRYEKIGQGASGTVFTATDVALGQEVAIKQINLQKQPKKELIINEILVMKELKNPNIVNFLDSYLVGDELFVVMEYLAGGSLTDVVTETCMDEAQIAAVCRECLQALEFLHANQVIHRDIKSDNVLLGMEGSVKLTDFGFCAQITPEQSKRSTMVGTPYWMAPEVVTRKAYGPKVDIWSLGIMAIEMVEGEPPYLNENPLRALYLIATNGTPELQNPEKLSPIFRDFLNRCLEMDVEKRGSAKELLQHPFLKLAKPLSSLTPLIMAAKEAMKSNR

Question: With `CN1CCN(c2ccc(Nc3ncc4ccc(=O)n(Cc5c(F)cccc5C(F)(F)F)c4n3)cc2)CC1` [Compound 60] as the compound, how does the IC50 read?
Answer: < 1000 nM

Tested on: PAK1, PAK2, PAK3, PAK-4
Test: PAK isoform inhibition profile of example compounds
Assay type: biochemical
Conditions: classification of example compounds in the description; underlying IC50 data in Table 8
Source text: In some embodiments, the PAK inhibitor is a Group I PAK inhibitor that inhibits, for example, one or more Group I PAK polypeptides, for example, PAK1, PAK2, and/or PAK3. […] In some embodiments, the PAK inhibitor is a PAK2 inhibitor. In some embodiments, the PAK inhibitor is a PAK3 inhibitor. In some embodiments, the PAK inhibitor is a mixed PAK1/PAK3 inhibitor. […] In some embodiments, the PAK inhibitor is a Group II PAK inhibitor that inhibits one or more Group II PAK polypeptides, for example PAK-4, PAK5, and/or PAK6. In some embodiments, the PAK inhibitor is a PAK4 inhibitor. In some embodiments, the PAK inhibitor is a PAK5 inhibitor. In some embodiments, the PAK inhibitor is a PAK6 inhibitor.
as §1, §2, §3, §4, §5

Question: With `CN1CCN(c2ccc(Nc3ncc4ccc(=O)n(C5CCCC5)c4n3)cc2)CC1` [Compound 2] as the compound, how does the “PAK inhibitor type (isoform profile)” value read?
Answer: PAK1 inhibitor

Question: How did the “PAK inhibitor type (isoform profile)” value turn out when `CN1CCN(c2ccc(Nc3ncc4ccc(=O)n(C5CCc6ccccc65)c4n3)cc2)CC1` (stereo not drawn) [Compound 7] was run?
Answer: PAK1 inhibitor

Question: For `O=c1ccc2cnc(Nc3ccc(OC4CCNCC4)cc3)nc2n1Cc1ccccc1C(F)(F)F` [Compound 13], which “PAK inhibitor type (isoform profile)” value is on record?
Answer: mixed PAK1/PAK2/PAK3/PAK-4 inhibitor

Question: For `CN(c1ccc(Nc2ncc3ccc(=O)n(Cc4ccccc4C(F)(F)F)c3n2)cc1)C1CCCNC1` (stereo not drawn) [Compound 14], which “PAK inhibitor type (isoform profile)” value is on record?
Answer: mixed PAK1/PAK2/PAK3/PAK-4 inhibitor

Question: `O=c1ccc2cnc(Nc3ccc(OC4CCCNC4)cc3)nc2n1Cc1ccccc1C(F)(F)F` (stereo not drawn) [Compound 15] was tested. Which “PAK inhibitor type (isoform profile)” value did it give?
Answer: mixed PAK1/PAK2/PAK3/PAK-4 inhibitor

Question: With `CN1CCN(c2ccc(Nc3ncc4ccc(=O)n(C5Cc6ccccc6C5)c4n3)cc2)CC1` [Compound 18] as the compound, how does the “PAK inhibitor type (isoform profile)” value read?
Answer: mixed PAK1/PAK-4 inhibitor

Question: Which “PAK inhibitor type (isoform profile)” value does the source give for `CN1CCN(c2ccc(Nc3ncc4ccc(=O)n(C5CCc6ccccc6C5)c4n3)cc2)CC1` (stereo not drawn) [Compound 19] here?
Answer: mixed PAK1/PAK2/PAK3/PAK-4 inhibitor

Question: How did the “PAK inhibitor type (isoform profile)” value turn out when `CN1CCN(c2ccc(Nc3ncc4ccc(=O)n(C5CCC(C)(C)c6ccccc65)c4n3)cc2)CC1` (stereo not drawn) [Compound 21] was run?
Answer: mixed PAK1/PAK2 inhibitor

Question: How did the “PAK inhibitor type (isoform profile)” value turn out when `O=c1ccc2cnc(Nc3ccc(N4CCNCC4)c(F)c3)nc2n1C1Cc2ccccc2C1` [Compound 22] was run?
Answer: mixed PAK1/PAK2/PAK-4 inhibitor

Question: Which “PAK inhibitor type (isoform profile)” value does the source give for `O=c1ccc2cnc(Nc3ccc(N4CCNCC4)c(F)c3)nc2n1C1CCc2ccccc2C1` (stereo not drawn) [Compound 23] here?
Answer: mixed PAK1/PAK2/PAK3/PAK-4 inhibitor

Question: How did the “PAK inhibitor type (isoform profile)” value turn out when `CN1CCN(c2ccc(Nc3ncc4ccc(=O)n(Cc5ccccc5Cl)c4n3)cc2)CC1` [Compound 33] was run?
Answer: mixed PAK1/PAK2 inhibitor

Question: `COc1ccccc1Cn1c(=O)ccc2cnc(Nc3ccc(N4CCN(C)CC4)cc3)nc21` [Compound 36] was tested. Which “PAK inhibitor type (isoform profile)” value did it give?
Answer: PAK1 inhibitor

Question: With `CN1CCN(c2ccc(Nc3ncc4ccc(=O)n(Cc5ccccc5OC(F)(F)F)c4n3)cc2)CC1` [Compound 43] as the compound, how does the “PAK inhibitor type (isoform profile)” value read?
Answer: mixed PAK1/PAK2 inhibitor

Question: With `CN1CCN(c2ccc(Nc3ncc4ccc(=O)n(Cc5ccccc5C(F)(F)F)c4n3)cc2)CC1` [Compound 44] as the compound, how does the “PAK inhibitor type (isoform profile)” value read?
Answer: mixed PAK1/PAK2/PAK3/PAK-4 inhibitor

Question: Which “PAK inhibitor type (isoform profile)” value does the source give for `CN1CCN(c2ccc(Nc3ncc4ccc(=O)n(Cc5ccccc5SC(F)(F)F)c4n3)cc2)CC1` [Compound 45] here?
Answer: mixed PAK1/PAK2/PAK3/PAK-4 inhibitor

Question: How did the “PAK inhibitor type (isoform profile)” value turn out when `CN1CCN(c2ccc(Nc3ncc4ccc(=O)n(Cc5ccccc5OC(F)F)c4n3)cc2)CC1` [Compound 46] was run?
Answer: mixed PAK1/PAK2/PAK3/PAK-4 inhibitor

Question: For `CN1CCN(c2ccc(Nc3ncc4ccc(=O)n(CCc5ccccc5)c4n3)cc2)CC1` [Compound 51], which “PAK inhibitor type (isoform profile)” value is on record?
Answer: mixed PAK1/PAK2/PAK-4 inhibitor

Question: Which “PAK inhibitor type (isoform profile)” value does the source give for `CN1CCN(c2ccc(Nc3ncc4ccc(=O)n(Cc5ccccc5-n5cccn5)c4n3)cc2)CC1` [Compound 55] here?
Answer: PAK1 inhibitor

Question: For `COc1ccc(F)cc1Cn1c(=O)ccc2cnc(Nc3ccc(N4CCN(C)CC4)cc3)nc21` [Compound 56], which “PAK inhibitor type (isoform profile)” value is on record?
Answer: PAK1 inhibitor

Question: Which “PAK inhibitor type (isoform profile)” value does the source give for `CN1CCN(c2ccc(Nc3ncc4ccc(=O)n(Cc5c(F)cccc5C(F)(F)F)c4n3)cc2)CC1` [Compound 60] here?
Answer: mixed PAK1/PAK2/PAK3/PAK-4 inhibitor

Question: For `CN1CCCC(Nc2ccc(Nc3ncc4ccc(=O)n(Cc5ccccc5C(F)(F)F)c4n3)cc2)C1` (stereo not drawn) [Compound 63], which “PAK inhibitor type (isoform profile)” value is on record?
Answer: mixed PAK1/PAK2/PAK3/PAK-4 inhibitor

Question: How did the “PAK inhibitor type (isoform profile)” value turn out when `CCOc1ccccc1Cn1c(=O)ccc2cnc(Nc3ccc(N4CCN(C)CC4)cc3)nc21` [Compound 64] was run?
Answer: inhibits all three Group I PAK isoforms (PAK1, 2 and PAK3) with equal or similar potency

Question: `O=c1c(-c2ccccc2)cc2cnc(Nc3ccc(NC4CCCNC4)cc3)nc2n1Cc1ccccc1C(F)(F)F` (stereo not drawn) [Compound 121] was tested. Which “PAK inhibitor type (isoform profile)” value did it give?
Answer: inhibits all three Group I PAK isoforms (PAK1, 2 and PAK3) with equal or similar potency
